Measurements reported in US20260347403A1, “FUNGICIDAL COMPOUND” (priority 2022, published 2026).
Where two headings read alike, the source gives them in different places. Numbered stars: 1 amine (or outer) side, 2 acyl side, 3 side chain; on linkers, the order of the positions; unused ones are H or OH. Bridge positions count the residues as written; N and C are the ends. Square brackets hold non-standard residues; d marks the D form. Peptide text beside a SMILES is read from it. * marks the point of attachment. Tridecanoyl(12-Me) = CC(C)CCCCCCCCCCC(=O)*; X1 = NC(=O)CC(O)C(N[*:1])C(=O)[*:2]; NMeF = CN[CH](Cc1ccccc1)C(=O)O; NMeN = CN[CH](CC(N)=O)C(=O)O; X2 = CCC(C)CCCCCCCCCCC(=O)*

Experiments:
several fungal species = experiment: Leaf disc or leaf segment tests, summary over the fungi tested; format: in vivo; conditions: up to; Tables 4 and 5
Method: (§1) Leaf disks or leaf segments of various plant species were cut from plants grown in the greenhouse. The cut leaf disks, or segments were placed in multiwell plates (24-well format) onto water agar. The leaf disks were sprayed with a test solution before inoculation with the fungal spores. Compounds to be tested were prepared as DMSO solutions (max. 10 mg/ml) which were diluted to the appropriate concentration with water plus 0.025% Tween® 20 just before spraying. The inoculated leaf disks or segments were incubated under defined conditions (temperature, relative humidity, light, etc.) according to the respective test system. A single evaluation of disease level was carried out by visual evaluation 3-9 days days after inoculation, depending on the pathosystem as indicated below. Percent disease control relative to the untreated check leaf disks or segments was then calculated.

Pyrenophora teres = experiment: Leaf disc preventative test on barley, Pyrenophora teres (Net Blotch), 5-7 days after application; format: in vivo; conditions: Table 5
Method: as §1
Pyrenophora teres/Barley/Leaf Disc Preventative (Net Blotch)
Barley leaf segments cv. Hasso were placed on agar in a multiwell plate (24-well format) and sprayed with the formulated test compound diluted in water. The leaf segments were inoculated with a spore suspension of the fungus 2 days after application. The inoculated leaf segments were incubated at 20 °C and 65% rh under a light regime of 12 h light/12 h darkness in a climate cabinet and the activity of a compound was assessed as disease control compared to untreated when an appropriate level of disease damage appears in untreated check leaf segments (5-7 days after application).

[1] = system: ROS production induced by flg22; experiment: Reactive Oxygen Species (ROS) burst assay with wheat leaf discs; conditions: Triticum aestivum, foliar
[2] = system: Puccinia recondita f. sp. tritici; experiment: Leaf disc/segment test on wheat, Puccinia recondita f. sp. tritici (Brown Rust), 7-9 days after application; format: in vivo
Method: as §1
Puccinia recondita f. Sp. Tritici/Wheat/Leaf Disc (Brown Rust)
Wheat leaf segments cv. Kanzler were placed on agar in multiwell plates (24-well format) and sprayed with the formulated test compound diluted in water. The leaf disks were inoculated with a spore suspension of the fungus 1 day after application. The inoculated leaf segments were incubated at 19 °C and 75% rh under a light regime of 12 h light/12 h darkness in a climate cabinet and the activity of a compound was assessed as percent disease control compared to untreated when an appropriate level of disease damage appears in untreated check leaf segments (7-9 days after application).

Phaeosphaeria nodorum = experiment: Leaf disc test on wheat, Phaeosphaeria nodorum (Glume Blotch), 5-7 days after application; format: in vivo, Phaeosphaeria nodorum (Septoria nodorum) on wheat; conditions: Table 5
Method: as §1
Phaeosphaeria Nodorum (Septoria nodorum)/Wheat/Leaf Disc (Glume Blotch)
Wheat leaf segments cv. Kanzler were placed on agar in a multiwell plate (24-well format) and sprayed with the formulated test compound diluted in water. The leaf disks were inoculated with a spore suspension of the fungus 2 days after application. The inoculated test leaf disks were incubated at 20 °C and 75% rh under a light regime of 12 h light/12 h darkness in a climate cabinet and the activity of a compound was assessed as percent disease control compared to untreated when an appropriate level of disease damage appears in untreated check leaf disks (5-7 days after application)

Botryotinia fuckeliana = experiment: Liquid culture, Botryotinia fuckeliana (Botrytis cinerea), Gray Mould, 3-4 days; format: cell-based
Method: (§2) Mycelia fragments or conidia suspensions of a fungus, prepared either freshly from liquid cultures of the fungus or from cryogenic storage, were directly mixed into nutrient broth.
(§3) A stock solution for compound of Formula I(a) and Formula I(b) was produced in DMSO (max. 10 mg/ml), which was diluted with water plus 0.025% Tween®20 to produce a 10× concentrated sample and 10 μl of this solution was pipetted into a microtiter plate (96-well format). The nutrient broth containing the fungal spores/mycelia fragments was then added to give an end concentration of the tested compound. The test plates were incubated in the dark at 24 °C and 96% rh. The inhibition of fungal growth was determined photometrically after 2-7 days, depending on the pathosystem, and percent antifungal activity relative to the untreated check was calculated.
The effect of the test compound (Formula I(a), I(b) and Lipopeptin A) was tested against the following fungi under the conditions as outlined above and specifically herein below:
Botryotinia fuckeliana (Botrytis cinerea)/Liquid Culture (Gray Mould)
Conidia of the fungus from cryogenic storage were directly mixed into nutrient broth (Vogels broth). The inhibition of growth is determined photometrically 3-4 days after application.

[3] = system: several phytopathogenic fungi; experiment: Liquid culture assays, summary over the fungi tested; format: cell-based; conditions: up to; Tables 2 and 3
Method: as §2, §3
The effect of the test compound (Formula I(a), I(b) and Lipopeptin A) was tested against the following fungi under the conditions as outlined above and specifically herein below: […]

[4] = read-out: Fold change (peak ROS)
[5] = read-out: increase of ROS production induced by flg22 (factor)

SMILES | reduction of fungal growth (several fungal species) | % reduction of fungal growth (Pyrenophora teres; 0.82 ppm) [%] | % reduction of fungal growth (Pyrenophora teres; 2.5 ppm) [%] | % reduction of fungal growth (Pyrenophora teres; 7.4 ppm) [%] | % reduction of fungal growth (Pyrenophora teres; 22 ppm) [%] | % reduction of fungal growth (Pyrenophora teres; 67 ppm) [%] | % reduction of fungal growth (Pyrenophora teres; 200 ppm) [%] | fold induction at 1 ppm [1, 4] | fold induction at 25 ppm [1, 4] | fold induction at 100 ppm [1, 4] | fold induction at 100 ppm [1, 5] | % reduction of fungal growth ([2]; Table 4, 0.82 ppm) [%] | % reduction of fungal growth ([2]; Table 4, 2.5 ppm) [%] | % reduction of fungal growth ([2]; Table 4, 7.4 ppm) [%] | % reduction of fungal growth ([2]; Table 4, 22 ppm) [%] | % reduction of fungal growth ([2]; Table 4, 67 ppm) [%] | % reduction of fungal growth ([2]; Table 4, 200 ppm) [%] | % reduction of fungal growth ([2]; Table 5, 0.82 ppm) [%] | % reduction of fungal growth ([2]; Table 5, 2.5 ppm) [%] | % reduction of fungal growth ([2]; Table 5, 7.4 ppm) [%] | further results
CC(C)CCCCCCCCCCC(=O)NC1C(=O)NC(CC(=O)O)C(=O)NC(C(O)CC(N)=O)C(=O)NC(CO)C(=O)N(C)C(CC(N)=O)C(=O)N(C)C(Cc2ccccc2)C(=O)NC(CCC(N)=O)C(=O)NC(CCC(=O)O)C(=O)OC1C (stereo not shown) [Formula I(a)] ({Tridecanoyl(12-Me)}-TD[X1]S[NMeN][NMeF]QE; ester 1-C; configuration not given here) | up to 95% | 0 | 0 | 0 | 0 | 60 | 80 | 0.8 | 0.8 | 2.7 | ≥ 2.7 | 0 | 0 | 0 | 0 | 90 | 100 | 0 | 0 | 0 | % reduction of fungal growth ([2]; Table 5, 22 ppm): 35%; % reduction of fungal growth ([2]; Table 5, 67 ppm): 90%; % reduction of fungal growth ([2]; Table 5, 200 ppm): 95%; % reduction of fungal growth (Phaeosphaeria nodorum; 0.82 ppm): 0%; % reduction of fungal growth (Phaeosphaeria nodorum; 2.5 ppm): 0%; % reduction of fungal growth (Phaeosphaeria nodorum; 7.4 ppm): 0%; % reduction of fungal growth (Phaeosphaeria nodorum; 22 ppm): 0%; % reduction of fungal growth (Phaeosphaeria nodorum; 67 ppm): 0%; % reduction of fungal growth (Phaeosphaeria nodorum; 200 ppm): 50%; % reduction fungal growth (Botryotinia fuckeliana; Table 2, 0.41 ppm): 0%; % reduction fungal growth (Botryotinia fuckeliana; Table 2, 1.2 ppm): 0%; % reduction fungal growth (Botryotinia fuckeliana; Table 2, 3.7 ppm): 0%; % reduction fungal growth (Botryotinia fuckeliana; Table 2, 11 ppm): 0%; % reduction fungal growth (Botryotinia fuckeliana; Table 2, 33 ppm): 0%; % reduction fungal growth (Botryotinia fuckeliana; Table 2, 100 ppm): 50%; % reduction fungal growth (Botryotinia fuckeliana; Table 3, 3.7 ppm): 50%; % reduction fungal growth (Botryotinia fuckeliana; Table 3, 11 ppm): 50%; % reduction fungal growth (Botryotinia fuckeliana; Table 3, 33 ppm): 70%; % reduction fungal growth (Botryotinia fuckeliana; Table 3, 100 ppm): 70%; control of phytopathogenic fungi [3]: up to 100%
CCC(C)CCCCCCCCCCC(=O)NC1C(=O)NC(CC(=O)O)C(=O)NC(C(O)CC(N)=O)C(=O)NC(CO)C(=O)N(C)C(CC(N)=O)C(=O)N(C)C(Cc2ccccc2)C(=O)NC(CCC(N)=O)C(=O)NC(CCC(=O)O)C(=O)OC1C (stereo not shown) [Formula I(b)] (X2-TD[X1]S[NMeN][NMeF]QE; ester 1-C; configuration not given here) | up to 95% | 0 | 0 | 0 | 0 | 90 | 90 | 1.2 | 1.3 | 3 | ≥ 2.7 | 0 | 0 | 0 | 0 | 45 | 70 | 0 | 0 | 0 | % reduction of fungal growth ([2]; Table 5, 22 ppm): 35%; % reduction of fungal growth ([2]; Table 5, 67 ppm): 70%; % reduction of fungal growth ([2]; Table 5, 200 ppm): 95%; % reduction of fungal growth (Phaeosphaeria nodorum; 0.82 ppm): 0%; % reduction of fungal growth (Phaeosphaeria nodorum; 2.5 ppm): 0%; % reduction of fungal growth (Phaeosphaeria nodorum; 7.4 ppm): 0%; % reduction of fungal growth (Phaeosphaeria nodorum; 22 ppm): 0%; % reduction of fungal growth (Phaeosphaeria nodorum; 67 ppm): 0%; % reduction of fungal growth (Phaeosphaeria nodorum; 200 ppm): 0%; % reduction fungal growth (Botryotinia fuckeliana; Table 2, 0.41 ppm): 0%; % reduction fungal growth (Botryotinia fuckeliana; Table 2, 1.2 ppm): 0%; % reduction fungal growth (Botryotinia fuckeliana; Table 2, 3.7 ppm): 0%; % reduction fungal growth (Botryotinia fuckeliana; Table 2, 11 ppm): 0%; % reduction fungal growth (Botryotinia fuckeliana; Table 2, 33 ppm): 0%; % reduction fungal growth (Botryotinia fuckeliana; Table 2, 100 ppm): 50%; % reduction fungal growth (Botryotinia fuckeliana; Table 3, 11 ppm): 50%; % reduction fungal growth (Botryotinia fuckeliana; Table 3, 33 ppm): 50%; % reduction fungal growth (Botryotinia fuckeliana; Table 3, 100 ppm): 70%; control of phytopathogenic fungi [3]: up to 100%
